Experimental data: patent publication US11274280B2, “Generation of functional beta cells from human pluripotent stem cell-derived endocrine progenitors” (Novo Nordisk A/S, priority 2016, dated 2022)

Tested on: hPSC-derived beta cells
Assay: Perfusion assay of dynamic human insulin secretion in vitro
Assay type: cell-based
Settings: human insulin ELISA
Description: Mature beta cells are functionally defined by their rapid response to elevated glucose. Secretion of human insulin by beta cells at the end of BC step 2 was measured as repeated responses to 20 mM glucose±1 μM exendin-4 or ±the anti-diabetic sulfonylurea compound Tolbutamide within a perfusion system.
Briefly, groups of 300 hand-picked, clusters of hESC- or hiPSC-derived cell clusters were suspended with beads (Bio-Rad #150-4124) in plastic chambers of Biorep PERFUSION SYSTEM (Biorep #PERI-4.2). Under temperature- and CO2-controlled conditions, the cells were perfused at 0.5 ml min-1 with a Krebs buffer. Prior to sample collection, cells were equilibrated under basal (2 mM glucose) conditions for 1 h. During perfusion cells were exposed to repeated challenges with 20 mM glucose±1 μM exendin-4 or ±100 μM Tolbutamide. At the end of perfusion, cells were exposed to cAMP-elevating agents on top of 20 mM glucose. Insulin secretion was measured by human insulin ELISA (Mercodia).

Molecule | effect on insulin secretion (100 μM Tolbutamide with 20 mM glucose, day 7 of BC step 2) | level of insulin secretion (1 μM exendin-4 with 20 mM glucose, day 3 and day 7 of BC step 2)
CCCCNC(=O)NS(=O)(=O)c1ccc(C)cc1 [tolbutamide, Tolbutamide] | significant additive effect | –
exendin-4 | – | increased the level of insulin secretion
